Laboratory results taken from US20100267561A1, “HERBICIDAL PYRIDAZINONE DERIVATIVES” (priority 2007, published 2010).

Tests used:
Format in all cases: in vivo
[1] = system: downy bromegrass (Bromus tectorum); experiment: Test B pre-/postemergence plant response
Procedure, shortened: (§1)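 Seeds were sown and sprayed preemergence, while plants at 2 to 18 cm (1- to 4-leaf stage) got postemergence sprays. Compounds were formulated in a non-phytotoxic solvent mixture with surfactant. After 13 to 15 days in a greenhouse, injury was rated visually against untreated controls, 0 (no effect) to 100 (complete control).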

[2] = system: surinam grass (Brachiaria decumbens); experiment: Test B pre-/postemergence plant response
Procedure, shortened: as §1

[3] = system: giant foxtail (Setaria faberii); experiment: Test B pre-/postemergence plant response
Procedure, shortened: as §1

[4] = system: bermudagrass (Cynodon dactylon); experiment: Test B pre-/postemergence plant response
Procedure, shortened: as §1

[5] = system: morningglory (Ipomoea coccinea); experiment: Test B pre-/postemergence plant response
Procedure, shortened: as §1

[6] = system: wheat (Triticum aestivum); experiment: Test B pre-/postemergence plant response
Procedure, shortened: as §1

[7] = system: Italian ryegrass (Lolium multiflorum); experiment: Test B pre-/postemergence plant response
Procedure, shortened: as §1

[8] = system: lambsquarters (Chenopodium album); experiment: Test B pre-/postemergence plant response
Procedure, shortened: as §1

soybean (Glycine max) = experiment: Test B pre-/postemergence plant response
Procedure, shortened: as §1

[9] = system: common (oilseed) sunflower (Helianthus annuus); experiment: Test B pre-/postemergence plant response; conditions: Preemergence
Procedure, shortened: as §1

[10] = system: pigweed (Amaranthus retroflexus); experiment: Test B pre-/postemergence plant response
Procedure, shortened: as §1

[11] = system: canarygrass (Phalaris minor); experiment: Test B postemergence plant response; conditions: for Plant response rating, Canarygrass: Postemergence
Procedure, shortened: (§2)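 Test compounds were applied postemergence to plants 2 to 18 cm tall (1- to 4-leaf stage). After 13 to 15 days in a greenhouse, each species was visually compared with untreated controls and rated 0 (no effect) to 100 (complete control).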

[12] = system: chickweed (Stellaria media); experiment: Test B postemergence plant response; conditions: for Plant response rating, Chickweed: Postemergence
Procedure, shortened: as §2

[13] = system: windgrass (Apera spica-venti); experiment: Test B postemergence plant response; conditions: for Windgrass plant response rating: postemergence, 0-100 scale; for Plant response rating, Windgrass: Postemergence
Procedure, shortened: as §2

[14] = system: winter barley (Hordeum vulgare); experiment: Test B postemergence plant response; conditions: for Plant response rating, Barley: Postemergence, scale 0 to 100, 0 no effect, 100 complete control
Procedure, shortened: as §2

[15] = 8 g ai/ha, postemergence, 0-100 scale
[16] = Postemergence, 16 g ai/ha, scale 0 to 100
[17] = Postemergence, 31 g ai/ha, scale 0 to 100
[18] = Postemergence, 62 g ai/ha, scale 0 to 100, 0 no effect, 100 complete control
[19] = Preemergence, 8 g ai/ha, scale 0 to 100 (0 no effect, 100 complete control)
[20] = Preemergence, 31 g ai/ha, scale 0 to 100 (0 no effect, 100 complete control)
[21] = Preemergence, 62 g ai/ha, 0 to 100 scale, 0 no effect, 100 complete control
[22] = Preemergence, 16 g ai/ha, scale 0 to 100
[23] = 16 g ai/ha, postemergence, 0-100 scale
[24] = 62 g ai/ha, scale 0 to 100, 0 no effect, 100 complete control

Cc1nn(C)c(=O)c(-n2nc(-c3ccc(Br)cc3)cc2C)c1O [Compound 81]
40: Bermudagrass plant response rating [4, 15]
90: Surinam Grass plant response rating [2, 15] | Ryegrass, Italian plant response rating [7, 23]
70: Plant response rating, Bromegrass, Downy [1, 18] | Plant response rating, Bromegrass, Downy [1, 20] | Bromegrass, Downy plant response rating [1, 22] | Ryegrass, Italian plant response rating [7, 19] | Plant response rating, Barley ([14]; 31 g ai/ha)
5: Wheat plant response rating [6, 22]
0: Bromegrass, Downy plant response rating [1, 15] | Bermudagrass plant response rating [4, 19] | Morningglory plant response rating [5, 15] | Morningglory plant response rating [5, 23] | Plant response rating, Morningglory [5, 17] | Plant response rating, Morningglory [5, 18] | Morningglory plant response rating [5, 19] | Plant response rating, Morningglory [5, 20] | Morningglory plant response rating [5, 22] | Wheat plant response rating [6, 19] | Lambsquarters plant response rating [8, 15] | Lambsquarters plant response rating [8, 23] | Plant response rating, Lambsquarters [8, 17] | Plant response rating, Lambsquarters [8, 18] | Lambsquarters plant response rating [8, 19] | Plant response rating, Lambsquarters [8, 20] | Plant response rating, Lambsquarters [8, 21] | Lambsquarters plant response rating [8, 22] | Soybean plant response rating (soybean (Glycine max); [15]) | Soybean plant response rating (soybean (Glycine max); [23]) | Soybean plant response rating (soybean (Glycine max); [19]) | Plant response rating, Soybean (soybean (Glycine max); [20]) | Plant response rating, Soybean (soybean (Glycine max); [21]) | Soybean plant response rating (soybean (Glycine max); [22]) | Sunflower plant response rating ([9]; 8 g ai/ha, scale 0 to 100 (0 no effect, 100 complete control)) | Sunflower plant response rating ([9]; 16 g ai/ha, scale 0 to 100) | Pigweed plant response rating [10, 15] | Pigweed plant response rating [10, 23] | Plant response rating, Pigweed [10, 17] | Plant response rating, Pigweed [10, 18] | Pigweed plant response rating [10, 19] | Plant response rating, Pigweed [10, 20] | Pigweed plant response rating [10, 22] | Chickweed plant response rating [12, 15] | Plant response rating, Chickweed ([12]; 16 g ai/ha, scale 0 to 100) | Plant response rating, Chickweed ([12]; 31 g ai/ha, scale 0 to 100) | Plant response rating, Chickweed [12, 24]
100: Plant response rating, Surinam Grass [2, 17] | Plant response rating, Surinam Grass [2, 18] | Plant response rating, Surinam Grass [2, 20] | Plant response rating, Surinam Grass [2, 21] | Plant response rating, Foxtail, Giant [3, 18] | Plant response rating, Foxtail, Giant [3, 20] | Plant response rating, Foxtail, Giant [3, 21] | Foxtail, Giant plant response rating [3, 22] | Plant response rating, Bermudagrass [4, 17] | Plant response rating, Bermudagrass [4, 18] | Plant response rating, Bermudagrass [4, 20] | Plant response rating, Bermudagrass [4, 21] | Plant response rating, Morningglory [5, 21] | Plant response rating, Wheat [6, 18] | Plant response rating, Ryegrass, Italian [7, 17] | Plant response rating, Ryegrass, Italian [7, 18] | Plant response rating, Ryegrass, Italian [7, 20] | Plant response rating, Ryegrass, Italian [7, 21] | Ryegrass, Italian plant response rating [7, 22] | Plant response rating, Canarygrass [11, 24]
50: Plant response rating, Bromegrass, Downy [1, 17] | Bermudagrass plant response rating ([4]; Preemergence, 16 g ai/ha, scale 0 to 100 (0 no effect, 100 complete control)) | Plant response rating, Wheat [6, 20]
65: Canarygrass plant response rating [11, 15]
10: Barley plant response rating [14, 15]
20: Bromegrass, Downy plant response rating [1, 19] | Plant response rating, Soybean (soybean (Glycine max); [18]) | Plant response rating, Sunflower ([9]; 62 g ai/ha, 0 to 100 scale, 0 no effect, 100 complete control)
85: Plant response rating, Bromegrass, Downy [1, 21] | Surinam Grass plant response rating [2, 22] | Plant response rating, Foxtail, Giant [3, 16] | Plant response rating, Wheat [6, 21] | Ryegrass, Italian plant response rating [7, 15] | Plant response rating, Windgrass ([13]; 31 g ai/ha, scale 0 to 100)
55: Wheat plant response rating [6, 23] | Plant response rating, Pigweed [10, 21]
30: Wheat plant response rating [6, 15]
45: Plant response rating, Bromegrass, Downy [1, 16] | Windgrass plant response rating ([13]; 8 g ai/ha)
95: Plant response rating, Bermudagrass [4, 16] | Plant response rating, Wheat [6, 17] | Plant response rating, Windgrass [13, 24]
98: Surinam Grass plant response rating [2, 23] | Plant response rating, Foxtail, Giant [3, 17] | Plant response rating, Canarygrass ([11]; 31 g ai/ha, scale 0 to 100) | Plant response rating, Barley ([14]; 62 g ai/ha)
60: Surinam Grass plant response rating [2, 19]
80: Foxtail, Giant plant response rating [3, 15] | Foxtail, Giant plant response rating [3, 19] | Windgrass plant response rating ([13]; 16 g ai/ha)
15: Plant response rating, Soybean (soybean (Glycine max); [17]) | Plant response rating, Sunflower ([9]; 31 g ai/ha, scale 0 to 100 (0 no effect, 100 complete control)) | Plant response rating, Barley ([14]; 16 g ai/ha)
